Reference: PMC4774911, “Biochemical Screening of Five Protein Kinases from Plasmodium falciparum against 14,000 Cell-Active Compounds” (PLoS ONE, 2016)
Several values for one entry are separate records, joined by “and”; a condition that tells them apart may be missing. Identical values can stand only once.

What was measured:
Assay in all cases: biochemical
Set-up in all cases: endogenous in cells; host or cells: K562 cell extract; species or system K562 (extract); replicate k of n = 2 (each experiment ID is one independent experiment; two experiment IDs per compound)
Settings in all cases: read-out: KDapp
[1] = biological target: T1, MARK4 (Homo sapiens, UniProt Q96L34)
T1 sequence (Q96L34 1-752): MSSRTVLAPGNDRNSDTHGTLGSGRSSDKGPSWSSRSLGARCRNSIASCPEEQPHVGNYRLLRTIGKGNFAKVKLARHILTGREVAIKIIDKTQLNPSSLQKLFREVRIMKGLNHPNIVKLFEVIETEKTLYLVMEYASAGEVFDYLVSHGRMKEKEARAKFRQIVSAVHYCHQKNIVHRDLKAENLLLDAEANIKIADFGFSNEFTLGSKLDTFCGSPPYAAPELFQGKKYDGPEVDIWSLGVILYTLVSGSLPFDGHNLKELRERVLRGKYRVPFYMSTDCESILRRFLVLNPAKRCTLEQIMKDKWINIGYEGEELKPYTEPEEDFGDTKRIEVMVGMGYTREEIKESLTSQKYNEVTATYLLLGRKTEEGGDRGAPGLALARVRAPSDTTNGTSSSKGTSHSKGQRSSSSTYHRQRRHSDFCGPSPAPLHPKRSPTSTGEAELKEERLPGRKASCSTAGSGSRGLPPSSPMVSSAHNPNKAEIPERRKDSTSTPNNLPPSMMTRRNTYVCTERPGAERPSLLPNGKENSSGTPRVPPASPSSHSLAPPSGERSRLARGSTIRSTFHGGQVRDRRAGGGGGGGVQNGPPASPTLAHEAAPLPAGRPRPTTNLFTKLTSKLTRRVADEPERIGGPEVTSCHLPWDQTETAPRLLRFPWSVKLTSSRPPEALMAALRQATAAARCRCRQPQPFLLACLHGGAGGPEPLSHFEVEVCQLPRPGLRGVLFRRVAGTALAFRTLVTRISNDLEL

[2] = biological target: PIM1 (Homo sapiens, UniProt P11309)
Sequence of PIM1 (P11309 whole entry): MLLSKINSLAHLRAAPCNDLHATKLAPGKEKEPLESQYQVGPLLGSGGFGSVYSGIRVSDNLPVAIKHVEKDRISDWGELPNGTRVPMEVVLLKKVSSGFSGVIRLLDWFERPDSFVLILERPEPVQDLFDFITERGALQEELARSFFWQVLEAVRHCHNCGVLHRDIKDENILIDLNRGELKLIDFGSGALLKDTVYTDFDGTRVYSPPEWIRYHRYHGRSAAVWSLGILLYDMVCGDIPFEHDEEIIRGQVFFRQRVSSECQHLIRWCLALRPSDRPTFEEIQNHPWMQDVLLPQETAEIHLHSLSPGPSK

[3] = biological target: RPS6KA3 (Homo sapiens, UniProt P51812)
Sequence of RPS6KA3 (P51812 whole entry): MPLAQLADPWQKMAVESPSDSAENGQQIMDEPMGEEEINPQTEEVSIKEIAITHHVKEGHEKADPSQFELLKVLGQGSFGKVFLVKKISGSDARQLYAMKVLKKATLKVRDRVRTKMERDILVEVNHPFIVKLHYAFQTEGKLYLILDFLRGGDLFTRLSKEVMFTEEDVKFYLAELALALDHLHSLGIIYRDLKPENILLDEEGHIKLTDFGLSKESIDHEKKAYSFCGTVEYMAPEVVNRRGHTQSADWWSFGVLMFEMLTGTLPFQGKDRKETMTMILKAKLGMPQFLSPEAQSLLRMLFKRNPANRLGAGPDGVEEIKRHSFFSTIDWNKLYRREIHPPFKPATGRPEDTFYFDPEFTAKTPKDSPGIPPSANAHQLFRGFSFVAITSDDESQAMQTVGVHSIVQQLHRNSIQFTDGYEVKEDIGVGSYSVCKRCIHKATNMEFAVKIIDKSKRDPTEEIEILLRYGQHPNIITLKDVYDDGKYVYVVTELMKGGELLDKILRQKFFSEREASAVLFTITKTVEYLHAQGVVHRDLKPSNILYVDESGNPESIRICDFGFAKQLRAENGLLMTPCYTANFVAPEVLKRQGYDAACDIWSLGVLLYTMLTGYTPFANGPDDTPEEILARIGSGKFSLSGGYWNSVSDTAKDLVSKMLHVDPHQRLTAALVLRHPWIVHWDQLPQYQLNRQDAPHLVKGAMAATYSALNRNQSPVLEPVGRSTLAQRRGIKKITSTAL

[4] = biological target: T2, STK4 (Homo sapiens, UniProt Q13043)
T2 sequence (Q13043 1-487): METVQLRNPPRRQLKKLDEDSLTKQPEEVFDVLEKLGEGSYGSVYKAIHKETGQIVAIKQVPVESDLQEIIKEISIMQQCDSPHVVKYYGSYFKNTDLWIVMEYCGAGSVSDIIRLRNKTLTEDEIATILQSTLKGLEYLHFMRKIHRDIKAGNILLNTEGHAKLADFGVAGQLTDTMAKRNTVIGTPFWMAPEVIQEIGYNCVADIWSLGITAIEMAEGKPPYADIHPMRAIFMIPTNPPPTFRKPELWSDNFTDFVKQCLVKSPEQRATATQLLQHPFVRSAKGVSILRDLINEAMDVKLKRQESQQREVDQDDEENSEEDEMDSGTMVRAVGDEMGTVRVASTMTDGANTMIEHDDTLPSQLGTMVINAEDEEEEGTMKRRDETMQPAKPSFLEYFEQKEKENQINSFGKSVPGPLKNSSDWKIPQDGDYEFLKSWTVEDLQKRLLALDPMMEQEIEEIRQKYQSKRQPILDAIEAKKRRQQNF

[5] = biological target: T3, TTK (Homo sapiens, UniProt P33981)
T3 sequence (P33981 1-857): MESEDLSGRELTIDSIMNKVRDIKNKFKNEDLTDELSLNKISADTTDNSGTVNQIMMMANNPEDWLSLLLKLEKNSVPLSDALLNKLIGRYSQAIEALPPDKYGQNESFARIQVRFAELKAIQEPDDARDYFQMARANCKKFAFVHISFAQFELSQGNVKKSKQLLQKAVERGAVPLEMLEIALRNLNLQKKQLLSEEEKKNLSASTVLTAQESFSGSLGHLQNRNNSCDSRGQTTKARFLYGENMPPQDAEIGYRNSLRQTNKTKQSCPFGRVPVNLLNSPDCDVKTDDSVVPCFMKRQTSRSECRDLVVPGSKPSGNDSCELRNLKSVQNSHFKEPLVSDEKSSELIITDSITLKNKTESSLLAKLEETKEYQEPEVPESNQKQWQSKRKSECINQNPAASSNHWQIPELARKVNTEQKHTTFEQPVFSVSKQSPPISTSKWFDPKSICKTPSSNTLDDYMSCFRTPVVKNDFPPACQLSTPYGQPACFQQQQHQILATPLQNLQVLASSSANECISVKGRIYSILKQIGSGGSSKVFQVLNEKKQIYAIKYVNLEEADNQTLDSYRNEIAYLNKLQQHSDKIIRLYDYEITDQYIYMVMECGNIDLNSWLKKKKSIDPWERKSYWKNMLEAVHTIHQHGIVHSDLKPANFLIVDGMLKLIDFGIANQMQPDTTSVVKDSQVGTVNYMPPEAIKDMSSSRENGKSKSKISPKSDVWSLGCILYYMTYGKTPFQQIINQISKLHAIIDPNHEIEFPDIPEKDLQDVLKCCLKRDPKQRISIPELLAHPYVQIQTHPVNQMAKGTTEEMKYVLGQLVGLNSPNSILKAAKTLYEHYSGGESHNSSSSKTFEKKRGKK

With `CN(C)CC(O)COc1ccc(Nc2ncc([N+](=O)[O-])c(Nc3ccccc3O)n2)cc1.O=C(O)C(F)(F)F` (centres unmarked) [TCMDC-141399] the Kd [1] was 6160 nM and 3900 nM.
In the case of `CN1CCN(c2ccc(Nc3ncc(C#N)c(Nc4ccccc4C(N)=O)n3)cc2)CC1.Cl` [TCMDC-134116], the Kd [2] is reported as 3560 nM and 2970 nM, the Kd [3] is reported as 60.8 nM and 82 nM and the Kd [4] is reported as 121 nM and 140 nM. For the same compound, the Kd [5] was 439 nM and 357 nM.
